{
  "source": "paper PMC7259601",
  "about": "(PLoS ONE, 2020)",
  "key": {"[1]": {"tested_on": "FAD cofactor (in KDM1A or free)", "assay": "KDM1A binding analysis (FAD absorbance at 450 nm)", "experimental": "Analysis of binding of inhibitors to KDM1A was as previously described [22](Yang et al., 2007) with minor modifications. The binding to FAD (present in the enzyme or free) was analyzed by measuring the decrease in absorbance at 450nm in a Tecan Infinite F200 microplate reader. Briefly, KDM1A enzyme was mixed with the inhibitor (without substrate) and the absorbance at 450nm was compared with the absorbance of the KDM1A enzyme without inhibitor. The reaction is monitored during 30 min and values used to calculate Kobs.\nAbsorbance at 450 nm was measured as described and Kobs was calculated following the equation: […]"}, "19 epigenetic targets": {"tested_on": "19 epigenetic targets", "assay": "Panel of 19 epigenetic targets", "type": "biochemical", "settings": "10 μM", "experimental": "[…]. MAO-A inhibition at 10 μM was 37%, in line with internal data."}, "Rat pharmacokinetics": {"assay": "Rat pharmacokinetics", "type": "in vivo, Wistar rats", "settings": "for AUC(0-inf) / Cmax / Tmax / AUC(0-t): Wistar; for AUC(0-inf): read-out: Plasma AUCinf; for AUC(0-t): read-out: Plasma AUClast", "experimental": "Blood samples were collected at 0, 0.08 (for IV only), 0.25, 0.5, 1, 2, 4, and 6 (Only for PO) 8 and 24 hr for IV and PO group and at three rats were euthanized by using excess CO2 asphyxiation, each at 0.25, 1 and 4 hr post dose and brain was collected. The study was conducted at Sai Advantium Pharma Limited, Pune, India, in accordance with the guidelines of the Institutional Animal Ethics Committee (IAEC). Prior approval was obtained before initiation of the study (IAEC Protocol No. IAEC/PRT/006-11).\nBlood samples were collected from each rat at 0.5, 1, 2, 4, 6, 8, 12, and 24 hr (oral gavage) or at 2, 4, 6, 8, 12, 24, 25, 27, 30 and 48 hr (drinking water) were collected from the retro-orbital plexus into labeled tubes, containing K2EDTA solution, as an anticoagulant. Animals were euthanized by using excess CO2 asphyxiation. […] Prior approval was obtained before initiation of the study (IAEC Protocol No. FB-14-069-R-089; IAEC-CPCSEA).\nPlasma was harvested from the blood samples harvested in K2EDTA containing tubes by centrifugation at 4000 rpm for 10 min at 4 ± 2 °C and stored below -70 °C until bioanalysis. Brain tissue was homogenized with phosphate buffer saline (pH 7.4). Total homogenate volume was thrice the tissue weight. All samples were processed for analysis by precipitation using Imipramine as internal standard and analyzed with partially validated LC-MS/MS method. Pharmacokinetic parameters were calculated using the non-compartmental analysis tool of WinNonlin® Enterprise software (Pharsight Corp., USA; version 5.2).\nCompound levels from 3 samples per timepoint (for a given dose and route of administration), were used to calculated pharmacokinetic parameters using the non-compartmental analysis tool of WinNonlin® Enterprise software (Pharsight Corp., USA; version 5.2)."}, "[2]": {"tested_on": "isolated Sprague-Dawley rats", "assay": "Resident Intruder test, rat isolation rearing model", "type": "in vivo", "settings": "0.16 or 0.48 mg/kg/day", "experimental": "Sprague Dawley Rats: Right after the weaning (post natal day 21-23), 72 Sprague-Dawley male rats (Charles River, bred in the UAB Animal facility) were divided in two groups: Control (N = 18), maintained 3-4 animals per cage; Isolated (N = 54), 1 animal per cage ([…] 1291H Eurostandard type III with ECOPURE CHIPS 6 bedding material, Harlan). Animals were maintained at 21 ± 2 °C controlled temperature in a 12 hr light / dark cycle (lights on at 8:00 am) with ad libitum access to food (2014 TEKLAD, Harlan) and water. […] Control animals were treated with vehicle. The administration route was drinking water and the vehicle 1.8% 2-Hydroxypropyl-b-cyclodextrin. Drug concentration was adjusted weekly by body weight and water consumption. During the last week of treatment, all animals were tested in the EPM and, on a different day, in the RI test (N = 12 / group). After depth anesthesia with Isoflurane, animals were perfused with saline solution followed by paraformaldehyde in order to obtain brain samples for histological analysis.\nThe protocol was modified from previously described. Briefly, the test subject (resident) was maintained in its home cage without bedding changes for one week. […] In mice the session was video-recorded for 20 min and social interaction (social interaction and rearings) and aggressive behavior (lateral threats, clinch attacks, keep-down behavior) were analyzed. […] In rats the session was video recorded for 15 min and social interaction (active and passive social interaction, number of evitations and time without social interaction) were analyzed. […] In addition, the time spent without social interaction was also measured.\nResident Intruder (RI): Mice were video-recorded for 20 min and social interaction and aggressive behavior were analyzed. Rats were video recorded for 15 min and social interaction (active and passive social interaction, number of evitations and time without social interaction) were analyzed."}, "[3]": {"settings": "Wistar rats, oral gavage 10 mg/kg"}, "[4]": {"settings": "male, rat, plasma, po, 5.6 mg/kg/day, Wistar rats, oral drinking water 0.25mg/ml (5,6 mg/kg)"}, "[5]": {"settings": "male, rat, plasma, po, 10 mg/kg, Wistar rats, oral drinking water, dose normalized to 10 mg/Kg"}, "[6]": {"settings": "male, rat, plasma, po, 10 mg/kg, Wistar rats, oral gavage 10 mg/kg"}, "[7]": {"settings": "male, rat, plasma, po, 10 mg/kg, Wistar rats, oral gavage 10 mg/kg (second gavage column)"}, "[8]": {"settings": "male, rat, plasma, po, 10 mg/kg, Wistar rats, oral gavage 10 mg/kg (second gavage column, gavage vs drinking water study)"}, "[9]": {"settings": "male, rat, plasma, Wistar rats, intravenous 2 mg/kg"}},
  "note": "Where two headings read alike, the source gives them in different places.",
  "data": [
    {"smiles": "Nc1nnc(CN[C@@H]2C[C@H]2c2ccc(OCc3ccccc3)cc2)o1", "note": "[ORY-2001, vafidemstat]", "values": [
      {"measurement": "binding to free FAD", "setting": "[1]", "value": "does not bind free FAD"},
      {"measurement": "mode of inhibition of KDM1A (FAD cofactor)", "setting": "[1]; absorbance spectrum and MALDI-TOF", "value": "covalent binding"},
      {"measurement": "% inhibition, any of 19 epigenetic targets", "setting": "19 epigenetic targets", "value": "≤ 15", "unit": "%"},
      {"measurement": "Brain Cmax", "setting": "Rat pharmacokinetics; [3]", "value": 4957, "unit": "ng/g"},
      {"measurement": "Fpo", "setting": "Rat pharmacokinetics; [3]", "value": 95, "unit": "%"},
      {"measurement": "time for brain compound levels to return to baseline", "setting": "Rat pharmacokinetics; brain pharmacokinetics (S2A Table)", "value": "less than 1 days"},
      {"measurement": "AUC(0-inf)", "setting": "Rat pharmacokinetics; male, rat, plasma, iv, 2 mg/kg, Wistar rats, intravenous 2 mg/kg", "value": 3910, "unit": "ng·h/mL"},
      {"measurement": "Cmax", "setting": "Rat pharmacokinetics; [4]", "value": 945, "unit": "ng/mL"},
      {"measurement": "Tmax", "setting": "Rat pharmacokinetics; [4]", "value": 8.67, "unit": "h"},
      {"measurement": "AUC(0-t)", "setting": "Rat pharmacokinetics; male, rat, plasma, po, 5.6 mg/kg/day, Wistar rats, oral drinking water 0.25mg/ml (5,6 mg/kg), ad libitum 24 hr", "value": 12000, "unit": "ng·h/mL"},
      {"measurement": "AUC(0-inf)", "setting": "Rat pharmacokinetics; [4]", "value": 12100, "unit": "ng·h/mL"},
      {"measurement": "Cmax", "setting": "Rat pharmacokinetics; [5]", "value": 1690, "unit": "ng/mL"},
      {"measurement": "Tmax", "setting": "Rat pharmacokinetics; [5]", "value": 8.67, "unit": "h"},
      {"measurement": "AUC(0-t)", "setting": "Rat pharmacokinetics; male, rat, plasma, po, 10 mg/kg, Wistar rats, oral drinking water, dose normalized to 10 mg/Kg considering a linear behavior", "value": 21500, "unit": "ng·h/mL"},
      {"measurement": "AUC(0-inf)", "setting": "Rat pharmacokinetics; [5]", "value": 21700, "unit": "ng·h/mL"},
      {"measurement": "Cmax", "setting": "Rat pharmacokinetics; [6]", "value": 3400, "unit": "ng/mL"},
      {"measurement": "Tmax", "setting": "Rat pharmacokinetics; [6]", "value": 0.833, "unit": "h"},
      {"measurement": "Cmax", "setting": "Rat pharmacokinetics; [7]", "value": 5970, "unit": "ng/mL"},
      {"measurement": "Tmax", "setting": "Rat pharmacokinetics; [7]", "value": 2, "unit": "h"},
      {"measurement": "AUC(0-inf)", "setting": "Rat pharmacokinetics; [8]", "value": 35600, "unit": "ng·h/mL"},
      {"measurement": "AUC(0-t)", "setting": "Rat pharmacokinetics; [8]", "value": 32900, "unit": "ng·h/mL"},
      {"measurement": "AUC(0-inf)", "setting": "Rat pharmacokinetics; [6]", "value": 21000, "unit": "ng·h/mL"},
      {"measurement": "AUC", "setting": "Rat pharmacokinetics; male, rat, plasma, po, Wistar rats, p.o. 10 mg/kg, read-out: area-under-the-curve (AUC) (converted)", "value": 21000, "unit": "ng·h/mL"},
      {"measurement": "clearance", "setting": "Rat pharmacokinetics; [9]", "value": 8.5, "unit": "mL/min/kg"},
      {"measurement": "half-life", "setting": "Rat pharmacokinetics; [9]", "value": 1.87, "unit": "h"},
      {"measurement": "Vd", "setting": "Rat pharmacokinetics; male, rat, plasma, Wistar rats, intravenous 2 mg/kg, read-out: Vss", "value": 1.2, "unit": "L/kg"},
      {"measurement": "half-life", "setting": "Rat pharmacokinetics; male, rat, plasma, Wistar rats, oral gavage 10 mg/kg", "value": 3.28, "unit": "h"},
      {"measurement": "active and passive social interaction", "setting": "[2]", "value": "had no effect on these parameters"},
      {"measurement": "number of evitations", "setting": "[2]", "value": "restored to normality"},
      {"measurement": "time without social interaction", "setting": "[2]", "value": "dose dependently reduced"}
    ]}
  ]
}
